For 38 compounds, IC50 results are on record in patent US20140315933A1, “CHEMICAL COMPOUNDS” (Pfizer Limited, priority 2013, published 2014).

Where a name gives a salt, the structure may show the parent alone. A value given as a limit tells only on which side of the number the result lay.

The target in the experiment is T1, URAT-1 transporter (Homo sapiens, UniProt Q96S37).
T1 construct: expressed in transfected cells
T1 sequence (Q96S37 with tags, fused parts or gaps): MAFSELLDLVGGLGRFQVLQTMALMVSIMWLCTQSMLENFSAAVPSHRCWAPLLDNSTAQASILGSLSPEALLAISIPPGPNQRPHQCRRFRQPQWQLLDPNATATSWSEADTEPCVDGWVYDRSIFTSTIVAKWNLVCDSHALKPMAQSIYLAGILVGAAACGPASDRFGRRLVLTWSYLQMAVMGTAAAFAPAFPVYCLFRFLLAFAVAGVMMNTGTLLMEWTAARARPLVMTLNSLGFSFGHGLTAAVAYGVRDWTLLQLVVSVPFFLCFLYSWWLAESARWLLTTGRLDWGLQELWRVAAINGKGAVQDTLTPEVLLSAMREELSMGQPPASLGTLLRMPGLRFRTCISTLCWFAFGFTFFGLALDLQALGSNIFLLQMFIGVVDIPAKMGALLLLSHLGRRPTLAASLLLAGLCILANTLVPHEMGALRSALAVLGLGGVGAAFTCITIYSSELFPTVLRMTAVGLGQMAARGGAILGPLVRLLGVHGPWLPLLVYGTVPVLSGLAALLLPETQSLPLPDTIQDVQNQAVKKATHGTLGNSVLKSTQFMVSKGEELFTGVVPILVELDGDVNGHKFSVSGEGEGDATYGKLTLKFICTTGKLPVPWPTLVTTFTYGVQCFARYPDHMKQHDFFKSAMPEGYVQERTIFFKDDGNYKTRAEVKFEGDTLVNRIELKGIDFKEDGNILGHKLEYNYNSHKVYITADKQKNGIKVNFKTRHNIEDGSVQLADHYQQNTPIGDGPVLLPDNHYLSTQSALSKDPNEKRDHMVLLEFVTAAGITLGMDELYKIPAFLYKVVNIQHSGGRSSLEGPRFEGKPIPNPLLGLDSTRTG
Description: URAT-1 inhibitor activity: [14C]-uric acid uptake into CHO-URAT1(L)GFP#8 (CHO#8) cells, scintillation proximity. It counts as cell-based. From the text:
The nucleotide sequence for the long isoform of URAT1 (NM_144585) was C-terminally fused to that of enhanced green fluorescent protein (eGFP) (hereinafter referred to as URAT1(L)GFP). The combined sequence was codon-optimised and custom synthesized. The synthesized sequence was generated in pDONR221 Gateway entry vector (Invitrogen Life Technologies) prior to cloning in pLenti6.3/V5 Gateway destination vector (Invitrogen Life Technologies).
Lentiviral particles were generated according to ViraPower HiPerform expression system procedure (Invitrogen Life Technologies) and used to transduce CHO cells. Blasticidin selection enabled the generation of a stable clonal pool of cells, confirmed by expression of GFP and V5 epitope. The clonal pools were sorted using fluorescence-activated cell sorting (FACS) on the basis of GFP expression with the gating set at the top 50% of expression into single cells which were subsequently expanded to generate clonal lines. […] This cell line was used for all screening activities and is referred to as CHO-URAT1(L)GFP#8 or CHO#8.
The potency of the compounds of formula (I) as inhibitors of the URAT-1 transporter was determined as follows.
CHO#8 cells were cultured in cell line maintenance flasks in medium consisting of Dulbecco's modified Eagle medium (DMEM) with high glucose and sodium pyruvate (4.5 g of glucose per litre, Invitrogen Life Technologies), supplemented with heat-inactivated foetal bovine serum (FBC, 10% v/v), 1×NEAA (non-essential amino acids) and blasticidin (10 μg/ml). Cultures were grown in 175 cm^2 tissue culture flasks in a humidified incubator at approximately 37° C. in approximately 95% air/5% CO2. Near confluent CHO#8 cell cultures were harvested by trypsinisation, re-suspended in culture medium and the process was repeated once or twice weekly to provide sufficient cells for use.
Assay ready flasks were generated by the same method, except the cells were not cultured in blasticidin.
Assay ready frozen cells were generated by freezing 40,000,000 cells in 1 ml of FBS (without blasticidin) containing 10% DMSO per vial. One vial was sufficient for 5 assay plates. Each vial was thawed rapidly to 37° C., washed and re-suspended in pre-warmed culture medium for seeding onto assay plates.
CHO#8 cells were seeded onto Cytostar™ 96-well plates at a density of […]. The cells were cultured for 1 day at approximately 37° C. in a humidified incubator containing approximately 5% CO2 in air. After approximately 24 hours culture, cells were used for uptake experiments.
On the day of assay, culture medium was removed from the wells and the cells were washed once with 50 μL of chloride-containing buffer (136.7 mM NaCl, 5.36 mM KCl, 0.952 mM CaCl2, 0.441 mM KH2PO4, 0.812 mM MgSO4, 5.6 mM D-glucose, 0.383 mM Na2HPO4.2H2O, 10 mM HEPES, pH 7.4 with NaOH). The cells were pre-incubated with another 50 μL of chloride-containing buffer for one hour at approximately 37° C. in a humidified incubator containing approximately 5% CO2 in air.
Assay compound plates were prepared by diluting the compounds of formula (I) with chloride-free buffer (125 mM Na-gluconate, 4.8 mM K-gluconate, 1.3 mM Ca-gluconate, 1.2 mM KH2PO4, 1.2 mM MgSO4, 5.6 mM D-glucose, 25 mM HEPES, pH 7.4 with NaOH) in 100% DMSO to a final concentration of 1% DMSO. [^14C]-Uric Uric acid working stock was made by addition of radiolabeled compound to a final concentration of 120 nM in chloride-free buffer. In all wells, the final assay concentration of solvent (DMSO) was 0.25%; the final assay concentration of [^14C]-uric acid was 30 nM in chloride-free buffer and the final compound of formula (I) concentrations ranged from 0 to 10 μM.
After pre-incubation, cells were washed with 50 μL of chloride-free buffer and another 50 μL of chloride-free buffer was added. […]
(In a scintillation proximity assay essentially only radioactivity close to the scintillant gives light.)
In general, IC50 refers to the point on the concentration scale where inhibition reaches its midpoint. Turning to `CCOc1ccc(Oc2ccc(S(=O)(=O)Nc3ncns3)cc2C#N)cc1` [compound 279], the IC50 is greater than 10 µM. Next, `N#Cc1cc(S(=O)(=O)Nc2nccs2)ccc1Oc1ccc(Cl)c(I)c1` [compound 169]: 0.073 µM; `COc1cc(OC)c(Oc2ccc(S(=O)(=O)Nc3ncc(Cl)s3)cc2C#N)c(OC)c1` [Example 90, N-(5-chloro-1,3-thiazol-2-yl)-3-cyano-4-(2,4,6-trimethoxyphenoxy)benzenesulfonamide]: 1.67 µM.

Regarding `N#Cc1cc(S(=O)(=O)Nc2ncns2)ccc1Oc1ccc(Cl)cc1Cl` [Example 16, 3-cyano-4-(4,6-dichlorophenoxy)-N-(1,2,4-thiadiazol-5-yl)benzenesulfonamide], half-maximal inhibition (IC50) required 0.428 µM.

With `N#Cc1cc(S(=O)(=O)Nc2nccs2)ccc1Oc1ccccc1CCO` [compound 176], the IC50 is greater than 6 µM. Next, `CCOc1cccc(Oc2ccc(S(=O)(=O)Nc3ncc(F)s3)cc2C#N)c1` [Example 100, 3-cyano-4-(3-ethoxyphenoxy)-N-(5-fluoro-1,3-thiazol-2-yl)benzenesulfonamide]: 0.554 µM; `COc1ccc(Oc2cc(F)c(S(=O)(=O)Nc3nncs3)cc2Cl)cc1Cl` [compound 320]: greater than 7.61 µM; `N#Cc1ccc(Oc2cc(F)c(S(=O)(=O)Nc3cscn3)cc2Cl)cc1Cl` [compound 239]: greater than 10 µM. The compound `O=S(=O)(Nc1nccs1)c1ccc(Oc2ccc(C(F)(F)F)cc2C(F)(F)F)c(F)c1` [Example 6, 4-[2,4-bis(trifluoromethyl)phenoxy]-3-fluoro-N-(1,3-thiazol-2-yl)benzenesulfonamide] yielded an IC50 greater than 10 µM. The result for `COc1cc(Cl)cc(Cl)c1Oc1ccc(S(=O)(=O)Nc2ncns2)cc1C#N` [Example 26, 3-cyano-4-(2,4-dichloro-6-methoxyphenoxy)-N-(1,2,4-thiadiazol-5-yl)benzenesulfonamide diethylamine salt] reads 0.875 µM. Next, `N#Cc1cc(S(=O)(=O)Nc2nccs2)ccc1Oc1ccc(CO)cc1F` [Example 7, 3-cyano-4-[2-fluoro-4-(hydroxymethyl)phenoxy]-N-(1,3-thiazol-2-yl)benzenesulfonamide, diethylamine salt]: 0.141 µM; `COc1cc(Cl)ccc1Oc1ccc(S(=O)(=O)Nc2cscn2)c(OC)c1` [Example 79, 4-(4-chloro-2-methoxyphenoxy)-2-methoxy-N-(1,3-thiazol-4-yl)benzenesulfonamide diethylamine salt]: greater than 10 µM. In turn, `N#Cc1cc(Oc2cc(F)c(S(=O)(=O)Nc3nncs3)cc2F)ccc1F` [compound 217] had an IC50 greater than 10 µM. Next, `N#Cc1cc(S(=O)(=O)Nc2nccs2)ccc1Oc1ccccc1Cl` [compound 181]: 1.22 µM; `CC(C)Oc1ccc(F)cc1Oc1cc(F)c(S(=O)(=O)Nc2nncs2)cc1Cl` [compound 295]: 0.478 µM. `COc1ccc(F)cc1Oc1ccc(S(=O)(=O)Nc2ncns2)cc1C#N` [compound 277] yielded an IC50 greater than 5.43 µM.

Turning to `COc1cc(C#N)c(F)cc1Oc1cc(F)c(S(=O)(=O)Nc2nncs2)cc1Cl` [compound 316], the IC50 was greater than 10 µM. Next, `O=S(=O)(Nc1ncc(F)s1)c1ccc(Oc2ccc(Cl)cc2OC(F)(F)F)c(F)c1` [Example 60, 4-[4-chloro-2-(trifluoromethoxy)phenoxy]-3-fluoro-N-(5-fluoro-1,3-thiazol-2-yl)benzenesulfonamide]: greater than 8.78 µM; `O=S(=O)(Nc1cscn1)c1cc(Cl)c(Oc2cc(Cl)ccc2OC(F)F)cc1F` [Example 158, 5-chloro-4-[5-chloro-2-(difluoromethoxy)phenoxy]-2-fluoro-N-(1,3-thiazol-4-yl)benzenesulfonamide]: 3.21 µM. Next, `COc1cc(C(F)(F)F)ccc1Oc1ccc(S(=O)(=O)Nc2ncns2)cc1C#N` [Example 25, 3-cyano-4-[2-methoxy-4-(trifluoromethyl)phenoxy]-N-(1,2,4-thiadiazol-5-yl)benzenesulfonamide diethylamine salt]: greater than 10 µM; `N#Cc1ccc(Oc2c(F)cc(S(=O)(=O)Nc3ncns3)cc2F)cc1Cl` [compound 215]: greater than 10 µM. Next, `CC(C)Oc1ccc(Oc2ccc(S(=O)(=O)Nc3nccs3)cc2C#N)cn1` [Example 192, 3-cyano-4-{[6-(propan-2-yloxy)pyridin-3-yl]oxy}-N-(1,3-thiazol-2-yl)benzenesulfonamide]: greater than 10 µM; `Cc1ccncc1Oc1ccc(S(=O)(=O)Nc2ncns2)cc1C#N` [compound 272, trifluoroacetic acid salt]: greater than 4.32 µM. The compound `Cc1cc(NS(=O)(=O)c2ccc(Oc3ccc(C#N)c(Cl)c3)c(C#N)c2)on1` [Example 59, 4-(3-chloro-4-cyanophenoxy)-3-cyano-N-(3-methyl-1,2-oxazol-5-yl)benzenesulfonamide] displayed an IC50 greater than 10 µM. Compound `N#Cc1cc(S(=O)(=O)Nc2ncc(F)s2)ccc1Oc1cc(F)c(F)cc1F` [Example 113, 3-cyano-N-(5-fluoro-1,3-thiazol-2-yl)-4-(2,4,5-trifluorophenoxy)benzenesulfonamide] had an IC50 of 1.12 µM.

`N#Cc1cc(S(=O)(=O)Nc2nccs2)ccc1Oc1ccc(I)cc1` [compound 165] had a concentration for half-maximal inhibition (IC50) of 0.505 µM. The result for `COc1cc(F)cc(Oc2ccc(S(=O)(=O)Nc3ncns3)cc2C#N)c1` [compound 289] reads 0.479 µM; that for `N#Cc1cc(S(=O)(=O)Nc2nccs2)ccc1Oc1ccc(Br)cc1F` [compound 170], greater than 1.26 µM. Next, `COc1cc(F)ccc1Oc1cc(F)c(S(=O)(=O)Nc2nncs2)cc1Cl` [compound 312]: greater than 6.45 µM; `COc1cc(C#N)ccc1Oc1cc(F)c(S(=O)(=O)Nc2nncs2)cc1Cl` [compound 296]: greater than 10 µM. Next, `CCc1nc(C)ccc1Oc1ccc(S(=O)(=O)Nc2ncns2)cc1C#N` [compound 276, trifluoroacetic acid salt]: greater than 10 µM; `O=S(=O)(Nc1nncs1)c1cc(F)c(Oc2ccc(F)c(F)c2)cc1F` [compound 209]: greater than 7.25 µM; `Cc1ccccc1Oc1cc(F)c(S(=O)(=O)Nc2nncs2)cc1Cl` [compound 328]: greater than 0.83 µM. For `COc1ccc(OC(F)(F)F)cc1Oc1ccc(S(=O)(=O)Nc2ncns2)cc1C#N` [Example 28, 3-cyano-4-[2-methoxy-5-(trifluoromethoxy)phenoxy]-N-(1,2,4-thiadiazol-5-yl)benzenesulfonamide diethylamine salt], the IC50 was greater than 7.45 µM. The result for `COc1cc(C)cc(Oc2cc(F)c(S(=O)(=O)Nc3nncs3)cc2Cl)c1` [compound 301] reads 0.382 µM; that for `COc1cc(Cl)c(Cl)cc1Oc1ccc(S(=O)(=O)Nc2ncns2)cc1C#N` [Example 9, 3-cyano-4-(4,5-dichloro-2-methoxyphenoxy)-N-(1,2,4-thiadiazol-5-yl)benzenesulfonamide], greater than 2.81 µM; that for `CCc1cc(F)ccc1Oc1ccc(S(=O)(=O)Nc2ncns2)c(C#N)c1` [Example 56, 2-cyano-4-(2-ethyl-4-fluorophenoxy)-N-(1,2,4-thiadiazol-5-yl)benzenesulfonamide], 2.12 µM.

For `N#Cc1cc(S(=O)(=O)Nc2ncns2)ccc1Oc1cccc(C(F)(F)F)c1` [Example 54, 3-cyano-N-(1,2,4-thiadiazol-5-yl)-4-[3-(trifluoromethyl)phenoxy]benzene sulfonamide], the IC50 is 2.85 µM.
